Tests used:
Squamous cell carcinoma = test: MTT assay, lung cancer tumor cells; type: cell-based, human; design: concentration or dose not given beside the values; conditions: 48 h, mean ± SD
Description: (§1) The inhibition of the growth of human lung cancer tumor cells by the polypeptide of the present invention was examined by MTT assay. The lung cancer tumor cells were cultured in a 37° C., 5% (volume fraction) CO2 incubator to a density of 90% or more, and collected by trypsinization. The cells were resuspended in the culture medium and counted under a microscope to adjust the cell concentration to 2.0×10^4 cells/mL, the cell suspension was inoculated into a 96-well plate at 100 μL per well, and cultured overnight at 37° C. in a 5% (volume fraction) CO2 incubator. After the cells were completely adhered, the polypeptide of the present invention was added as a drug-administered group, and a culture solution containing no drug was used as a blank control group, and the culture solution was diluted to each predetermined concentration. Each dilution was separately added to a 96-well plate at 100 μL per well and incubated for 48 h at 37° C. in a 5% (volume fraction) CO2 incubator. 20 μL of 5 mg/mL MTT was added to each well of a 96-well plate, and incubation was continued for 4 hours. The medium was aspirated, and the cells were dissolved in 100 μL of DMSO per well. The absorbance was measured by a microplate reader at a detection wavelength of 570 nm and a reference wavelength of 630 nm, and the growth inhibition rate was calculated as follows: tumor growth inhibition rate (%)=(1−administered group absorbance value/unadministered group absorbance value)×100%, and the experiment was repeated 3 times independently. The results obtained by the test were expressed as mean±standard deviation. The results in Table 6 indicate that the polypeptides of the present invention have a good inhibitory effect on proliferation of a variety of human lung cancer tumors (FIG. 5).

Small Cell Lung Cancer = test: MTT assay, lung cancer tumor cells; type: cell-based, human; design: concentration or dose not given beside the values; conditions: 48 h, mean ± SD
Description: as §1

[1] = tested on: Non-small cell lung cancer; test: MTT assay, lung cancer tumor cells; type: cell-based, human; design: concentration or dose not given beside the values; conditions: 48 h, mean ± SD
Description: as §1

Large cell lung cancer = test: MTT assay, lung cancer tumor cells; type: cell-based, human; design: concentration or dose not given beside the values; conditions: 48 h, mean ± SD
Description: as §1

Adenosquamous carcinoma = test: MTT assay, lung cancer tumor cells; type: cell-based, human; design: concentration or dose not given beside the values; conditions: 48 h, mean ± SD
Description: as §1

Adenocarcinoma = test: MTT assay, lung cancer tumor cells; type: cell-based, human; design: concentration or dose not given beside the values; conditions: 48 h, mean ± SD
Description: as §1

Head and neck cancer = test: MTT assay, tumor cells; type: cell-based, human; design: concentration or dose not given beside the values; conditions: 48 hours, mean ± SD
Description: (§2) A variety of human tumor cells were cultured in a 37° C., 5% (volume fraction) CO2 incubator to a density of 90% or more, collected by trypsinization, resuspended in a culture medium and counted under a microscope, and the cells were harvested. The concentration was adjusted to 2.0×10^4 cells/mL, the cell suspension was inoculated into a 96-well plate at 100 μL per well and cultured overnight at 37° C. in a 5% (volume fraction) CO2 incubator. After the cells were completely adhered, the polypeptides of the present invention were added as drug-administered groups, and a culture solution containing no drug was used as a blank control group, and the culture solution was diluted to each predetermined concentration. Each dilution was separately added to a 96-well plate at 100 μL per well and incubated for 48 hours at 37° C. in a 5% (volume fraction) CO2 incubator. 20 μL of 5 mg/mL MTT was added to each well of a 96-well plate and incubation was continued for 4 h. The medium was aspirated and dissolved in 100 μL of DMSO per well. The absorbance was measured with a microplate reader at a detection wavelength of 570 nm and a reference wavelength of 630 nm, and the growth inhibition rate was calculated as follows: tumor growth inhibition rate (%)=(1−absorbance value of the administered group/unadministered group absorbance value)×100%, and the experiment was repeated 3 times independently. The results obtained from the test were expressed as mean±standard deviation, and the tumor growth inhibition rate of the unadministered group was 0. The results in Table 7 indicate that the polypeptides of the present invention have a significant inhibitory effect on the growth of various tumors (FIG. 6).

Pancreatic cancer = test: MTT assay, tumor cells; type: cell-based, human; design: concentration or dose not given beside the values; conditions: 48 hours, mean ± SD
Description: as §2

Thyroid cancer = test: MTT assay, tumor cells; type: cell-based, human; design: concentration or dose not given beside the values; conditions: 48 hours, mean ± SD
Description: as §2

Brain tumor = test: MTT assay, tumor cells; type: cell-based, human; design: concentration or dose not given beside the values; conditions: 48 hours, mean ± SD
Description: as §2

Prostate cancer = test: MTT assay, tumor cells; type: cell-based, human; design: concentration or dose not given beside the values; conditions: 48 hours, mean ± SD
Description: as §2

Gastric cancer = test: MTT assay, tumor cells; type: cell-based, human; design: concentration or dose not given beside the values; conditions: 48 hours, mean ± SD
Description: as §2

Ovarian cancer = test: MTT assay, tumor cells; type: cell-based, human; design: concentration or dose not given beside the values; conditions: 48 hours, mean ± SD
Description: as §2

Colorectal cancer = test: MTT assay, tumor cells; type: cell-based, human; design: concentration or dose not given beside the values; conditions: 48 hours, mean ± SD
Description: as §2

Cervical cancer = test: MTT assay, tumor cells; type: cell-based, human; design: concentration or dose not given beside the values; conditions: 48 hours, mean ± SD
Description: as §2

Uterine cancer = test: MTT assay, tumor cells; type: cell-based, human; design: concentration or dose not given beside the values; conditions: 48 hours, mean ± SD
Description: as §2

sarcoma = test: MTT assay, tumor cells; type: cell-based, human; design: concentration or dose not given beside the values; conditions: 48 hours, mean ± SD
Description: as §2

Breast cancer = test: MTT assay, tumor cells; type: cell-based, human; design: concentration or dose not given beside the values; conditions: 48 hours, mean ± SD
Description: as §2

Liver cancer = test: MTT assay, tumor cells; type: cell-based, human; design: concentration or dose not given beside the values; conditions: 48 hours, mean ± SD
Description: as §2

Bladder Cancer = test: MTT assay, tumor cells; type: cell-based, human; design: concentration or dose not given beside the values; conditions: 48 hours, mean ± SD
Description: as §2

Melanoma = test: MTT assay, tumor cells; type: cell-based, human; design: concentration or dose not given beside the values; conditions: 48 hours, mean ± SD
Description: as §2

Hemangioma = test: MTT assay, tumor cells; type: cell-based, human; design: concentration or dose not given beside the values; conditions: 48 hours, mean ± SD
Description: as §2

Esophageal cancer = test: MTT assay, tumor cells; type: cell-based, human; design: concentration or dose not given beside the values; conditions: 48 hours, mean ± SD
Description: as §2

Kidney cancer = test: MTT assay, tumor cells; type: cell-based, human; design: concentration or dose not given beside the values; conditions: 48 hours, mean ± SD
Description: as §2

Staphylococcal fluid = test: Mouse pneumonia model, bacterial; type: in vivo, BALB/C mice; design: concentration or dose not given beside the values; conditions: mean ± SD
Description: (§3) The mouse pneumonia model was successfully established by the nose-drop method. To build the mouse pneumonia model, BALB/C mice with a body mass of 16-22 g were selected and anesthetized pneumonia chain was prepared after anesthesia with ether on day 0, day 1, and day 2. Staphylococcal fluid, adenovirus concentrate, Mycoplasma pneumoniae, Chlamydia pneumoniae, protozoa, and pneumonia fungi were slowly dripped into the nasal cavity of the mice, so that they enter the tracheobronchial. During the operation process, care was exercised to prevent bacterial fluid from flowing into the esophagus, which leads to inactivation the bacterial fluid. After successful model establishment, the polypeptides of the present invention were administered, and the results were shown in Table 5. […] The results were expressed in average value±standard deviation.

pneumonia fungi = test: Mouse pneumonia model, fungal; type: in vivo, BALB/C mice; design: concentration or dose not given beside the values; conditions: mean ± SD
Description: as §3

Mycoplasma pneumoniae = test: Mouse pneumonia model, mycoplasma; type: in vivo, BALB/C mice; design: concentration or dose not given beside the values; conditions: mean ± SD
Description: as §3

Chlamydia pneumoniae = test: Mouse pneumonia model, chlamydia; type: in vivo, BALB/C mice; design: concentration or dose not given beside the values; conditions: mean ± SD
Description: as §3

[2] = tested on: Pneumonia caused by lung infection; test: Mouse pneumonia model, pneumonia caused by lung infection; type: in vivo, BALB/C mice; design: concentration or dose not given beside the values; conditions: mean ± SD
Description: as §3

adenovirus concentrate = test: Mouse pneumonia model, viral; type: in vivo, BALB/C mice; conditions: mean ± SD
Description: as §3

protozoa = test: Mouse pneumonia model, protozoal; type: in vivo, BALB/C mice; design: concentration or dose not given beside the values; conditions: mean ± SD
Description: as §3

Compound: CC(=O)O[C@@]12CO[C@@H]1C[C@H](O)[C@@]1(C)C(=O)[C@H](O)C3=C(C)[C@@H](OC(=O)[C@H](O)[C@@H](NC(=O)OC(C)(C)C)c4ccccc4)C[C@@](O)([C@@H](OC(=O)c4ccccc4)[C@H]21)C3(C)C [Docetaxel, reference compound]
- tumor growth inhibition rate, MTT Assay (Squamous cell carcinoma): 39.78 ± 10.73%
- tumor growth inhibition rate, MTT Assay (Small Cell Lung Cancer): 42.16 ± 14.54%
- tumor growth inhibition rate, MTT Assay [1]: 55.50 ± 19.83%
- tumor growth inhibition rate, MTT Assay (Large cell lung cancer): 52.69 ± 16.12%
- tumor growth inhibition rate, MTT Assay (Adenosquamous carcinoma): 35.87 ± 13.84%
- tumor growth inhibition rate, MTT Assay (Adenocarcinoma): 52.54 ± 15.12%
- tumor growth inhibition rate, MTT Assay (Head and neck cancer): 32.59 ± 9.86%
- tumor growth inhibition rate, MTT Assay (Pancreatic cancer): 49.42 ± 18.21%
- tumor growth inhibition rate, MTT Assay (Thyroid cancer): 42.03 ± 12.71%
- tumor growth inhibition rate, MTT Assay (Brain tumor): 45.90 ± 13.88%
- tumor growth inhibition rate, MTT Assay (Prostate cancer): 54.25 ± 19.68%
- tumor growth inhibition rate, MTT Assay (Gastric cancer): 43.57 ± 16.44%
- tumor growth inhibition rate, MTT Assay (Ovarian cancer): 60.97 ± 18.44%
- tumor growth inhibition rate, MTT Assay (Colorectal cancer): 57.20 ± 17.30%
- tumor growth inhibition rate, MTT Assay (Cervical cancer): 50.54 ± 21.82%
- tumor growth inhibition rate, MTT Assay (Uterine cancer): 52.33 ± 19.09%
- tumor growth inhibition rate, MTT Assay (sarcoma): 44.26 ± 13.39%
- tumor growth inhibition rate, MTT Assay (Breast cancer): 61.44 ± 18.58%
- tumor growth inhibition rate, MTT Assay (Liver cancer): 48.95 ± 14.80%
- tumor growth inhibition rate, MTT Assay (Bladder Cancer): 34.82 ± 10.53%
- tumor growth inhibition rate, MTT Assay (Melanoma): 38.17 ± 11.54%
- tumor growth inhibition rate, MTT Assay (Hemangioma): 68.47 ± 20.71%
- tumor growth inhibition rate, MTT Assay (Esophageal cancer): 44.16 ± 13.36%
- tumor growth inhibition rate, MTT Assay (Kidney cancer): 40.23 ± 15.44%

Compound: Penicillin [reference compound]
- Inhibitory Effects on Various Pulmonary Infections (Staphylococcal fluid): 26.52 ± 11.07%
- Inhibitory Effects on Various Pulmonary Infections (pneumonia fungi): 35.13 ± 16.62%
- Inhibitory Effects on Various Pulmonary Infections (Mycoplasma pneumoniae): 23.91 ± 14.27%
- Inhibitory Effects on Various Pulmonary Infections (Chlamydia pneumoniae): 28.10 ± 14.99%
- Inhibitory Effects on Various Pulmonary Infections [2]: 31.03 ± 18.46%
- Inhibitory Effects on Various Pulmonary Infections (adenovirus concentrate): 35.02 ± 15.58%
- Inhibitory Effects on Various Pulmonary Infections (protozoa): 37.00 ± 20.45%
